From ChEMBL document CHEMBL6121006, “Marine natural product-inspired discovery of novel BRD4 inhibitors with anti-inflammatory activity” (Eur J Med Chem, 2025)
Activity calls are given as the source filed them. The calls are words filed in the database; no cut-off is given here.

Experiments:
[1] = test system: RAW264.7; assay: Anti-inflammatory activity in mouse RAW264.7 cells assessed as inhibition of LPS-induced NO production at 10 uM preincubated with compound for 24 hrs followed by LPS stimulation by Griess reagent based analysis relative to control; format: functional; set-up: scale not given: the % may be the effect or the level left
[2] = test system: RAW264.7; assay: Anti-inflammatory activity in mouse RAW264.7 cells assessed as inhibition of LPS-induced NO production preincubated with compound for 24 hrs followed by LPS stimulation by Griess reagent based analysis; format: functional, cell-based
[3] = target: Bromodomain-containing protein 2 (Homo sapiens) (UniProt P25440); assay: Inhibition of BRD2 BD1 (unknown origin) at 1 uM incubated for 2 hrs by TR-FRET assay relative to control
[4] = target: Bromodomain-containing protein 3 (Homo sapiens) (UniProt Q15059); assay: Inhibition of BRD3 BD1 (unknown origin) at 1 uM incubated for 2 hrs by TR-FRET assay relative to control
[5] = target: Bromodomain-containing protein 3 (Homo sapiens) (UniProt Q15059); assay: Inhibition of BRD3 BD2 (unknown origin) at 1 uM incubated for 2 hrs by TR-FRET assay relative to control
[6] = target: Bromodomain testis-specific protein (Homo sapiens) (UniProt Q58F21); assay: Inhibition of BRDT BD2 (unknown origin) at 1 uM incubated for 2 hrs by TR-FRET assay relative to control
[7] = target: T1, ATPase family AAA domain-containing protein 2 (Homo sapiens) (UniProt Q6PL18); assay: Inhibition of ATAD2A (unknown origin) at 1 uM incubated for 2 hrs by TR-FRET assay relative to control
T1 sequence (whole entry): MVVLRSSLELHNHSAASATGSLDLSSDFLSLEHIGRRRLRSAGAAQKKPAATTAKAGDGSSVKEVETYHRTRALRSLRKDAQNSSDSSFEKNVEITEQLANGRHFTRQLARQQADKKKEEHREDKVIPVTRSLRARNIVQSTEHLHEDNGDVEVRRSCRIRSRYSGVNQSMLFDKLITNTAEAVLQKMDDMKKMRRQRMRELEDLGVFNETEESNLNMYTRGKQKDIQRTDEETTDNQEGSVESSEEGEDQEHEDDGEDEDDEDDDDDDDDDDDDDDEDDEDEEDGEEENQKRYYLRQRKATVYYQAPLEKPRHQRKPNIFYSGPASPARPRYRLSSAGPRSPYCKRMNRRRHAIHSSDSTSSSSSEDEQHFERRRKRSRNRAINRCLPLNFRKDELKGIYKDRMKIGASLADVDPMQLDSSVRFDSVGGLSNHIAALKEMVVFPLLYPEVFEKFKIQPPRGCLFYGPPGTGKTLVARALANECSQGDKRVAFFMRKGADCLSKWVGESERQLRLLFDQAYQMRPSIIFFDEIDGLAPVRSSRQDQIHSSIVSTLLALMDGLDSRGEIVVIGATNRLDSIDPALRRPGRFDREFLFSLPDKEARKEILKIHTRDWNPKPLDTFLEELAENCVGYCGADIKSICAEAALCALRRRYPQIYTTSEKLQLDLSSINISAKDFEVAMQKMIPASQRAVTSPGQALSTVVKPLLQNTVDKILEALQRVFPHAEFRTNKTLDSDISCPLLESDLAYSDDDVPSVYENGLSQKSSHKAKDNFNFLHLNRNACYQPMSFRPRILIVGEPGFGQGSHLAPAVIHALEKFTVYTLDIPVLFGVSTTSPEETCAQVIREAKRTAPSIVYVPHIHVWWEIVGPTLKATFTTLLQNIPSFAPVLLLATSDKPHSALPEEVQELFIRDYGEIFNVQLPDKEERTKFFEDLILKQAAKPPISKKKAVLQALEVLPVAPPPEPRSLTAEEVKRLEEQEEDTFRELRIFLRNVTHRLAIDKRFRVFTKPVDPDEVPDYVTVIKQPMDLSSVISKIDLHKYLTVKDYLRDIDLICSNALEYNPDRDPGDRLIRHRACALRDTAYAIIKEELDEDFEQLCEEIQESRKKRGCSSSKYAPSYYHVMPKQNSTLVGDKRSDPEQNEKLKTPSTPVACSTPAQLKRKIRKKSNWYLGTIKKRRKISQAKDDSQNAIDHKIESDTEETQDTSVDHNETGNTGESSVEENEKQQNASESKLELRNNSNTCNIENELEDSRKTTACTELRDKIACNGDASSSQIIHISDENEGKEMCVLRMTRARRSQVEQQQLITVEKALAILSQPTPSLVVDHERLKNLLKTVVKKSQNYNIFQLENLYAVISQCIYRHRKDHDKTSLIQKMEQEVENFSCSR

[8] = target: Transcription initiation factor TFIID subunit 1 (Homo sapiens) (UniProt P21675); assay: Inhibition of TAF1 (unknown origin) at 1 uM incubated for 2 hrs by TR-FRET assay relative to control
[9] = target: Bromodomain-containing protein 4 (Homo sapiens, UniProt O60885); assay: Induction of thermal stabilization of human recombinant BRD4 […] (42 to 167 residues) extracted from Escherichia coli BL21 (DE3) incubated for 30 mins by thermal shift assay
[10] = test system: RAW264.7; assay: Anti-inflammatory activity in mouse RAW264.7 cells assessed as inhibition of LPS-induced IL-6 expression preincubated with compound for 2 hrs followed by LPS stimulation and measured after 6 hrs by RT-qPCR analysis; format: functional, cell-based; conditions: dose 2.5-20 µM, time 8.0 hrs
[11] = test system: RAW264.7; assay: Anti-inflammatory activity in mouse RAW264.7 cells assessed as inhibition of LPS-induced TNF-alpha level preincubated with compound for 2 hrs followed by LPS stimulation and measured after 22 hrs by ELISA method; format: functional, cell-based; conditions: dose 2.5-20 µM, time 24.0 hrs
[12] = test system: THP-1; assay: Anti-inflammatory activity in human THP-1 cells assessed as inhibition of LPS-induced IL-6 level preincubated with compound for 2 hrs followed by LPS stimulation and measured after 22 hrs by ELISA method; format: functional, cell-based; conditions: dose 2.5-20 µM, time 24.0 hrs
[13] = test system: Mus musculus; assay: Antiinflammatory activity against LPS-induced C57BL/6 mouse acute inflammation model assessed as improvement of internal brush boundary structure at 100 mg/kg, po pre-administered for 2 hrs followed by LPS stimulation for 6 hrs; format: functional, organism-based; conditions: time 8.0 hrs
[14] = test system: Mus musculus; assay: Antiinflammatory activity against LPS-induced C57BL/6 mouse acute inflammation model assessed as decrease in infiltration of renal interstitial inflammatory cells at 100 mg/kg, po pre-administered for 2 hrs followed by LPS stimulation for 6 hrs; format: functional, organism-based; conditions: time 8.0 hrs
[15] = Toxicity in C57BL/6 mouse effect on body weight at 100 mg/kg, po measured after 24 hrs; format: organism-based; conditions: in vivo
[16] = Toxicity in C57BL/6 mouse effect on intestine at 100 mg/kg, po measured after 24 hrs; format: organism-based; conditions: in vivo

Bromodomain-containing protein 3 (Homo sapiens), sequence (Q15059 2-726 limits assumed): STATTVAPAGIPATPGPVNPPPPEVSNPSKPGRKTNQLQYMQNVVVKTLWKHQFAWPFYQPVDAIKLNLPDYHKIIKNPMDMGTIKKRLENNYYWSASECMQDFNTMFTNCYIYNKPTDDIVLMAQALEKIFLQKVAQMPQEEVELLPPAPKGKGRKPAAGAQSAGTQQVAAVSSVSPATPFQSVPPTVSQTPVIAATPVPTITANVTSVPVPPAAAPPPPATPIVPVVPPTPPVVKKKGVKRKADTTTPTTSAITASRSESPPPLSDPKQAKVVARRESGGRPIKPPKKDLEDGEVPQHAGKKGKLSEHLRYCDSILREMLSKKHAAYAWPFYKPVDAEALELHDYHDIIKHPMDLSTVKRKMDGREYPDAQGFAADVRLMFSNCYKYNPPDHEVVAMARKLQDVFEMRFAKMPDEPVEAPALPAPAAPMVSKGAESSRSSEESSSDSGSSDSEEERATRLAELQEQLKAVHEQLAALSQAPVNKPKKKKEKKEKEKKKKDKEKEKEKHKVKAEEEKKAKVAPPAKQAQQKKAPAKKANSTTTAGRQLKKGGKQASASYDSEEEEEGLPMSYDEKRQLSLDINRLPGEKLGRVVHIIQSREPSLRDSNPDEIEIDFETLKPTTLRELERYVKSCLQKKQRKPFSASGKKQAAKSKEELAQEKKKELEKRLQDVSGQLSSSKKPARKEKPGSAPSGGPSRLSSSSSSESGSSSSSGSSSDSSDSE
Bromodomain-containing protein 2 (Homo sapiens), sequence (P25440 whole entry, looked up): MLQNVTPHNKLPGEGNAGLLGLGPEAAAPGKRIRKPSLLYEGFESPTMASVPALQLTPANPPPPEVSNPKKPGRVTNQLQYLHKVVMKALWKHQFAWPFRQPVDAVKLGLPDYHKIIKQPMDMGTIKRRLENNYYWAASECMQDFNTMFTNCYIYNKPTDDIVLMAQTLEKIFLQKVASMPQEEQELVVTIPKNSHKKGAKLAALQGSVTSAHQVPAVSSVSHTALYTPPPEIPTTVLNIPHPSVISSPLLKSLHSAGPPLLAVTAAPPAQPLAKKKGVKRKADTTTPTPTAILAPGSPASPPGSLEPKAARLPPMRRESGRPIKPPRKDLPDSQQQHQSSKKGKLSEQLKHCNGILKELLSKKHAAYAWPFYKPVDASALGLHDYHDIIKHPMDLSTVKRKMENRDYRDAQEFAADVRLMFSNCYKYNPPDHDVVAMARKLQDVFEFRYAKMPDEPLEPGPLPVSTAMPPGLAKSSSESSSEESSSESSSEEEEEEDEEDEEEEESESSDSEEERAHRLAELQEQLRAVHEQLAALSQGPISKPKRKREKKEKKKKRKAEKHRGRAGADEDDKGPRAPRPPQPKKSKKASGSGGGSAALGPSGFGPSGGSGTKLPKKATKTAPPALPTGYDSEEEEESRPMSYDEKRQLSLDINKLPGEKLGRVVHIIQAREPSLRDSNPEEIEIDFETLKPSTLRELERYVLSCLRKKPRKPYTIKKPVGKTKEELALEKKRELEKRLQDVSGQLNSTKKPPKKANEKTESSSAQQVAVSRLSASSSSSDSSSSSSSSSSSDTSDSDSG
Transcription initiation factor TFIID subunit 1 (Homo sapiens), sequence (P21675 whole entry, the tested form may be a part): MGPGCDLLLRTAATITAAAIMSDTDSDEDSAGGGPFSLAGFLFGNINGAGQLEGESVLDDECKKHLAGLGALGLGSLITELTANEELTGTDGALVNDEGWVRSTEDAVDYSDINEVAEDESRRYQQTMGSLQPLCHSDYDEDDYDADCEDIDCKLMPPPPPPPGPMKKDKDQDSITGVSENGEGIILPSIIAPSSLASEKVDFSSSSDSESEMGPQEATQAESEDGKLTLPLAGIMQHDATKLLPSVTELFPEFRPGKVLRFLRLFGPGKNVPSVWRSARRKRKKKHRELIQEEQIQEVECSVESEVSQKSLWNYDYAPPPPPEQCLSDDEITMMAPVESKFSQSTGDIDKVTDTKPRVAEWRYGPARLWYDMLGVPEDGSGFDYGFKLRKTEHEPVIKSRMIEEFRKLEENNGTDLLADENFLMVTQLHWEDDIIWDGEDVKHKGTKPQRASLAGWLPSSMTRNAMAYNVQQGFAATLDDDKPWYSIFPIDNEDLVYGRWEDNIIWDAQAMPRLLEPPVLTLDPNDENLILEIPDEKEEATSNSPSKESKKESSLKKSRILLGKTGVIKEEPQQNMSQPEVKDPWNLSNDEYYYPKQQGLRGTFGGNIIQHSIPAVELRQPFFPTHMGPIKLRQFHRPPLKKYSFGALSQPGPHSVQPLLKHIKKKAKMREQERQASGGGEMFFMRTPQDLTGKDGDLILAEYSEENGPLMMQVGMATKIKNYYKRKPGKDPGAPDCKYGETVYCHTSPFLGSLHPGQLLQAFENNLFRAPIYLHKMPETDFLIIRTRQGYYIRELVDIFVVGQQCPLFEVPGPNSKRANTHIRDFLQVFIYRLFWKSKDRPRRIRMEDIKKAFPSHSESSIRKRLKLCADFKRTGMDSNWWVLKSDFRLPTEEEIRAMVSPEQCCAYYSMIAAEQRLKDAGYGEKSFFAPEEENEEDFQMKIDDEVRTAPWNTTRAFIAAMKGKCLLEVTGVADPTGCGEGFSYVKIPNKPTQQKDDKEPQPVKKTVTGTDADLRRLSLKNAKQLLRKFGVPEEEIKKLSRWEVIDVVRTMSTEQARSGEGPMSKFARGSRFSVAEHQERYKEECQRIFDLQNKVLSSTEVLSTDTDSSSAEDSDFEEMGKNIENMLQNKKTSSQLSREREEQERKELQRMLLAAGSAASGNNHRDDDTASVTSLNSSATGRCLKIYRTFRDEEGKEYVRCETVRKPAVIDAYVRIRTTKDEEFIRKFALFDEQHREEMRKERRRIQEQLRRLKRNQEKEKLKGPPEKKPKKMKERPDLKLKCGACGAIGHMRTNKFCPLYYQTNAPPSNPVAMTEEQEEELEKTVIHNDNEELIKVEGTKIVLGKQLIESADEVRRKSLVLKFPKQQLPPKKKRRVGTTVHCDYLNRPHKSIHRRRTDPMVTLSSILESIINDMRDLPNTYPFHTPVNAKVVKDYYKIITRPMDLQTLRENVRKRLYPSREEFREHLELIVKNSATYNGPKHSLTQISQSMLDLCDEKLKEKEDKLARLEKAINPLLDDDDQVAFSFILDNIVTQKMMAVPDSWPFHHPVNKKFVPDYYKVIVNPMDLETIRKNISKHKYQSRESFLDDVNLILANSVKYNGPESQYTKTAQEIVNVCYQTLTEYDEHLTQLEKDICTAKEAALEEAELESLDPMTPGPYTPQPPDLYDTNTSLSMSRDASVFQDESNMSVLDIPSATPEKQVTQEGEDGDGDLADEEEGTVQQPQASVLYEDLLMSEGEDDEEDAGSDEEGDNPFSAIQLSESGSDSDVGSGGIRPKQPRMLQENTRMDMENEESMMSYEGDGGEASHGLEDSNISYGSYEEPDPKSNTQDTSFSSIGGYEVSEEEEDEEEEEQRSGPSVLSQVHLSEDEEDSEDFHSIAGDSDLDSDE

IC50 [2]: 1980 nM
inhibition [3]: 24%
inhibition [4]: 25%
inhibition [5]: 44%
inhibition [6]: 7%
inhibition [7]: 5%
inhibition [8]: 5%
Activity [9]: Active
Compound: COc1ccc(/C=C/c2nc3cc(OC)cc(OC)c3c(=O)[nH]2)cc1
Activity [1]: 106%
Activity [10]: Dose-dependent-effect
Activity [11]: Dose-dependent-effect
Activity [12]: Dose-dependent-effect
Activity [13]: Active
Activity [14]: Active
Activity [15]: Non-toxic
Activity [16]: Non-toxic
